{
  "source": "patent US20100204140A1",
  "about": "“USE OF A PEPTIDE AS A THERAPEUTIC AGENT” (priority 2007, published 2010)",
  "system": "drug-resistant Mycobacterium tuberculosis",
  "details": "peptide 10 micrograms per ml, seven days",
  "data": [
    {"smiles": "CSCC[C@H](NC(=O)[C@H](CC(C)C)NC(=O)CNC(=O)[C@@H](NC(=O)[C@H](Cc1ccccc1)NC(=O)[C@H](Cc1ccccc1)NC(=O)[C@H](CC(=O)O)NC(=O)[C@H](Cc1c[nH]cn1)NC(=O)[C@H](CCSC)NC(=O)[C@@H](N)CC(=O)O)C(C)C)C(N)=O", "note": "[Neurokinin B]", "values": [
      {"measurement": "% inhibition", "value": 0.0, "unit": "%"}
    ]}
  ]
}
